The target of assay [1] is T1, COX I (Homo sapiens, UniProt P23219).
T1 construct: made in house; baculovirus-infected insect cells by own knowledge of the cited Barnett et al. 1994
Nature of the assay: Inhibition of COX I in vitro (radiometric assay, 14C arachidonic acid, partially purified enzyme). Format: biochemical. The procedure:
(§1) The COX I and COX II inhibitory activity of compounds of this invention in vitro was determined using partially purified COX I and COX II enzymes, prepared as described in J. Barnett et al., Biochim. Biophys. Acta, 1209:130--139 (1994).
(§2) COX I and COX II samples were diluted with Tris-HCl buffer (50 mM Tris-HCl pH 7.9) containing 2 mM EDTA and 10% glycerol and reconstituted by incubating first with 2 mM phenol for 5 minutes and then with 1 micromolar hematin for an additional 5 minutes. 125 μl of the reconstituted COX I or COX II enzyme were preincubated for 10 minutes at room temperature in a shaking water bath with the compounds of the invention dissolved in 2-15 μl of DMSO or the carrier vehicles (control samples). The enzyme reaction was initiated by adding 25 μl of 1-[14C] arachidonic acid (80,000-100,000 cpm/tube; 20 micromolar final concentration) and the reaction was allowed to continue for an additional 45 seconds. The reaction was terminated by adding 100 μl of 2N HCl and 750 μl water. An aliquot (950 μl) of the reaction mixture was loaded onto a 1 ml C18 Sep-Pak column (J. T. Baker, Phillipsburg, N.J.) which had been previously washed with 2-3 ml methanol and equilibrated with 5-6 ml distilled water. Oxygenated products were quantitatively eluted with 3 ml of acetonitrile/water/acetic acid (50:50:0.1, v/v) and the radioactivity in the eluate determined in a scintillation counter.

Assay [2] deals with T2, COX II (Homo sapiens, UniProt P35354).
T2 construct: made in house; baculovirus-infected insect cells by own knowledge of the cited Barnett et al. 1994
T2 sequence (P35354 18-604): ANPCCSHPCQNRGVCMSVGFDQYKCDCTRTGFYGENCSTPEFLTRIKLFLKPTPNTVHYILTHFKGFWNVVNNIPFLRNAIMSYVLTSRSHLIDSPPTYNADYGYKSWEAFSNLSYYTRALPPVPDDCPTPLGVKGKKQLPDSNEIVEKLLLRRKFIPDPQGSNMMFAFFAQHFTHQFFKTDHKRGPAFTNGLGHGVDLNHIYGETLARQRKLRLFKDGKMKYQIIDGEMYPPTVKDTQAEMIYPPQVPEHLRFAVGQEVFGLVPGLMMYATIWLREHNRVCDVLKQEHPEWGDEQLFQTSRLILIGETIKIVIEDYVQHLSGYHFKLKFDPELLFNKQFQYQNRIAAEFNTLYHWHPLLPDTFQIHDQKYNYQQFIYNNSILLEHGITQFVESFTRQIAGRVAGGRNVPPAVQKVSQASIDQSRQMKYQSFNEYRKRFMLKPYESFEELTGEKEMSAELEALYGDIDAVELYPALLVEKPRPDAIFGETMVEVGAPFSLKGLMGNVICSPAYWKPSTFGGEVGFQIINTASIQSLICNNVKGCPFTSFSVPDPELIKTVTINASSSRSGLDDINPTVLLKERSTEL
The experiment in a line: Inhibition of COX II in vitro (radiometric assay, 14C arachidonic acid, partially purified enzyme). The assay is classed as biochemical. The method, then:
as §1, §2

Where [3] appears, read: partially purified COX I, 20 micromolar arachidonic acid, 10 min preincubation, room temperature, read-out: COX I IC50.
The mark [4] stands for this setting: partially purified COX II, 20 micromolar arachidonic acid, 10 min preincubation, room temperature, read-out: COX II IC50.

The source of these data is patent publication US5952368A, “5-aroylpyrrol-2-ylmethylarene derivatives” (Syntex (U.S.A.) Inc., priority 1997, dated 1999).

Where two headings read alike, the source gives them in different places.

T1 sequence (P23219 24-599): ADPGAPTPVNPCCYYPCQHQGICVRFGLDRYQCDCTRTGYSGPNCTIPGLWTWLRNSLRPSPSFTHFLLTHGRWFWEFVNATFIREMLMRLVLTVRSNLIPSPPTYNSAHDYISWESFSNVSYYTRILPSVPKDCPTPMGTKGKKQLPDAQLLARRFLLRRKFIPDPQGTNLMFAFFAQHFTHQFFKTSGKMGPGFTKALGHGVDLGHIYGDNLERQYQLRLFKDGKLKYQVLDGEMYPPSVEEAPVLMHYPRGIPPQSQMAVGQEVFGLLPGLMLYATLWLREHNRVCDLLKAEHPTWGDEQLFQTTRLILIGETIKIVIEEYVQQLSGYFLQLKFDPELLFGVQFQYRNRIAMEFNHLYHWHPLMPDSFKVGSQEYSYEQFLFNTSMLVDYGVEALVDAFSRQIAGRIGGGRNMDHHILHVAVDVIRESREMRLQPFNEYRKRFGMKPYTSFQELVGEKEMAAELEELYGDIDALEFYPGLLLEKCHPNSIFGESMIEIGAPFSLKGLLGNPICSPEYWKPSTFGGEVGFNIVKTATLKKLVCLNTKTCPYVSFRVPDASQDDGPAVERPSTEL

For `CC(=O)Nc1ccc(Cc2cc(C)c(C(=O)c3ccc(Cl)cc3)n2C)nc1` [compound 329, N-{2-[5-(4-Chlorobenzoyl)-1,4-dimethyl-1H-pyrrol-2-ylmethyl]pyridin-5-yl}acetamide], the IC50 in assay [1] (setting [3]) amounted to 256 µM; in assay [2] (setting [4]), 43700 nM.
Consider `Cc1ccc(C(=O)c2ccc(Cc3ccc(NS(C)(=O)=O)cc3)n2C)cc1` [compound 28, N-{4-[5-(4-Methylbenzoyl)-1-methyl-1H-pyrrol-2-ylmethyl]phenyl}methanesulfonamide], for which the concentration for half-maximal inhibition (IC50) in assay [1] (setting [3]) came to 33 µM; in assay [2] (setting [4]), 190 nM.
In the same order, the values of `Cc1cc(Cc2ccc(NS(C)(=O)=O)cc2F)n(C)c1C(=O)c1cccs1` [compound 340, N-{3-Fluoro-4-[5-(2-thenoyl)-1,4-dimethyl-1H-pyrrol-2-ylmethyl]phenyl}-methanesulfonamide] are 0.02 µM and 60 nM.
In the same order, the values of `COc1ccc(C(=O)c2c(C)cc(Cc3ccc(NS(C)(=O)=O)cn3)n2C)cc1` [compound 289, N-{2-[5-(4-Methoxybenzoyl)-1,4-dimethyl-1H-pyrrol-2-ylmethyl]pyridin-5-yl}-methanesulfonamide] are 10.2 µM and 1500 nM.
In the same order, the values of `COc1ccc(C(=O)c2ccc3n2CCC3c2ccc(NS(=O)(=O)CCO)cc2Cl)cc1` (centres unmarked) [compound 133, N-{3-Chloro-4-[5-(4-methoxybenzoyl)-1,2-dihydro-3H-pyrrolizin-1-yl]phenyl}-2(hydroxy)ethanesulfonamide] are 0.045 µM and 58 nM.
For `COc1ccc(C(=O)c2c(C)cc(Cc3ccc(NS(C)(=O)=O)cc3F)n2C)cc1` [compound 95, N-{3-Fluoro-4-[5-(4-methoxybenzoyl)-1,4-dimethyl-1H-pyrrol-2-ylmethyl]phenyl}-methanesulfonamide], the values for the 50% inhibitory concentration (IC50) in assay [1] (setting [3]) and in assay [2] (setting [4]) were 0.09 µM and 60 nM, respectively.
With `Cc1cc(Cc2ccc(NS(=O)(=O)CCO)cc2F)n(C)c1C(=O)c1ccc(F)cc1` [compound 104, N-{3-Fluoro-4-[5-(4-fluorobenzoyl)-1,4-dimethyl-1H-pyrrol-2-ylmethyl]phenyl}-2-(hydroxy)ethanesulfonamide], the values for the 50% inhibitory concentration (IC50) in assay [1] (setting [3]) and in assay [2] (setting [4]) were 0.75 µM and 240 nM, respectively.
In the case of `CS(=O)(=O)Nc1ccc(C2CCn3c(C(=O)c4ccccc4)ccc32)c(Cl)c1` (centres unmarked) [compound 131, N-{3-Chloro-4-[5-Benzoyl-1,2-dihydro-3H-pyrrolizin-1-yl]phenyl}methanesulfonamide], the IC50 in assay [1] (setting [3]) is 0.2 µM; in assay [2] (setting [4]), 77 nM.
Regarding `Cc1cc(Cc2ccc(NS(N)(=O)=O)cn2)n(C)c1C(=O)c1ccccc1` [compound 295, 1-{2-[5-benzoyl-1,4-dimethyl-1H-pyrrol-2-ylmethyl]pyridin-5-yl}sulfamide], the 50% inhibitory concentration (IC50) in assay [1] (setting [3]) was determined as 0.6 µM; in assay [2] (setting [4]) it was 100 nM.
In the same order, the values of `Cc1cc(Cc2ccc(NS(=O)(=O)CCO)cn2)n(C)c1C(=O)c1ccc(Cl)cc1` [compound 267, N-{2-[5-(4-Chlorobenzoyl)-1,4-dimethyl-1H-pyrrol-2-ylmethyl]pyridin-5-yl}-2-(hydroxy)ethanesulfonamide] are 210 µM and 700 nM.
Turning to `CNS(=O)(=O)Nc1ccc(Cc2ccc(C(=O)c3ccc(C)cc3C)n2C)c(F)c1` [compound 172, 1-{3-Fluoro-4-[5-(2,4-dimethylbenzoyl)-1-methyl-1H-pyrrol-2-ylmethyl]phenyl}-3-methylsulfamide], the IC50 in assay [1] (setting [3]) came out at 43 µM; in assay [2] (setting [4]), 90 nM.
In the same order, the values of `COc1ccc(C(=O)c2c(C)cc(Cc3ccc(NS(N)(=O)=O)cc3F)n2C)cc1` [compound 197, 1-{3-Fluoro-4-[5-(4-Methoxybenzoyl)-1,4-dimethyl-1H-pyrrol-2-ylmethyl]phenyl}-sulfamide] are under 0.1 µM and 70 nM.
Taken in the same sequence, the figures for `COc1ccc(C(=O)c2ccc(Cc3ccc(NS(N)(=O)=O)cn3)n2C)cc1` [compound 306, 1-{2-[5-(4-Methoxybenzoyl)-1-methyl-1H-pyrrol-2-ylmethyl]pyridin-5-yl}sulfamide] were 113 µM and 640 nM.
Turning to `Cc1ccc(C(=O)c2c(C)cc(Cc3ccc(NS(C)(=O)=O)cc3F)n2C)cc1` [compound 38, N-{3-Fluoro-4-[5-(4-methylbenzoyl)-1,4-dimethyl-1H-pyrrol-2-ylmethyl]phenyl}-methanesulfonamide], the results for the IC50 in assay [1] (setting [3]) and in assay [2] (setting [4]) were 0.27 µM and 65 nM, respectively.
In the same order, the values of `Cc1cc(Cc2ccc(NS(N)(=O)=O)cc2C#N)n(C)c1C(=O)c1ccc(Cl)cc1` [compound 147, 1-{3-Cyano-4-[5-(4-chlorobenzoyl)-1,4-dimethyl-1H-pyrrol-2-ylmethyl]phenyl}sulfamide] are 0.6 µM and 100 nM.
For the compound `CCS(=O)(=O)Nc1ccc(Cc2cc(C)c(C(=O)c3ccc(OC)cc3)n2C)c(F)c1` [compound 97, N-{3-Fluoro-4-[5-(4-methoxybenzoyl)-1,4-dimethyl-1H-pyrrol-2-ylmethyl]phenyl}-ethanesulfonamide], the half-inhibitory concentration (IC50) was under 0.1 µM in assay [1] (setting [3]) and 38 nM in assay [2] (setting [4]).
Take `COc1ccc(C(=O)c2ccc(Cc3ccc(NS(N)(=O)=O)cc3C#N)n2C)cc1` [compound 202, 1-{3-Cyano-4-[5-(4-methoxybenzoyl)-1-methyl-1H-pyrrol-2-ylmethyl]phenyl}-sulfamide]: the IC50 in assay [1] (setting [3]) was 3.2 µM; in assay [2] (setting [4]), 50 nM.
With `CCNC(=S)Nc1ccc(Cc2cc(C)c(C(=O)c3ccc(Cl)cc3)n2C)cc1` [compound 235], the 50% inhibitory concentration (IC50) was 8.2 µM in assay [1] (setting [3]) and 170 nM in assay [2] (setting [4]).
As for `Cc1cc(Cc2ccc(NC(=O)Nc3cccc(Cl)c3)cc2)n(C)c1C(=O)c1ccc(Cl)cc1` [compound 228, 1-{4-[5-(4-Chlorobenzoyl)-1,4-dimethyl-1H-pyrrol-2-ylmethyl]phenyl}-3-(3-chlorophenyl)-urea], the figures for the IC50 in assay [1] (setting [3]) and in assay [2] (setting [4]) were 8.5 µM and 100 nM, respectively.
Taken in the same sequence, the figures for `Cc1ccc(C(=O)c2ccc(Cc3ccc(NS(N)(=O)=O)cc3F)n2C)cc1` [compound 154, 1-{3-Fluoro-4-[5-(4-methylbenzoyl)-1-methyl-1H-pyrrol-2-ylmethyl]phenyl}sulfamide] were 34 µM and 54 nM.
Turning to `Cc1cc(Cc2ccc(NC(=O)CF)cc2)n(C)c1C(=O)c1ccc(Cl)cc1` [compound 243, N-{4-[5-(4-Chlorobenzoyl)-1,4-dimethyl-1H-pyrrol-2-ylmethyl]phenyl}fluoroacetamide], the IC50 in assay [1] turned out to be 100 µM; in assay [2] it was 8900 nM.
Take `Cc1cc(Cc2ccc(NC=O)cn2)n(C)c1C(=O)c1ccc(Cl)cc1` [compound 330, N-{2-[5-(4-Chlorobenzoyl)-1,4-dimethyl-1H-pyrrol-2-ylmethyl]pyridin-5-yl}formamide]: the half-inhibitory concentration (IC50) in assay [1] (setting [3]) was found to be 61.1 µM; in assay [2] (setting [4]), 30000 nM.
As to `Cc1ccccc1C(=O)c1ccc(Cc2ccc(NS(C)(=O)=O)cc2F)n1C` [compound 71, N-{3-Fluoro-4-[5-(2-methylbenzoyl)-1-methyl-1H-pyrrol-2-ylmethyl]phenyl}-methanesulfonamide], the concentration for half-maximal inhibition (IC50) in assay [1] (setting [3]) turned out to be 38 µM; in assay [2] (setting [4]), 160 nM.
Turning to `Cc1cc(Cc2ccc(N)cn2)n(C)c1C(=O)c1ccc(Cl)cc1` [compound 333, {2-[5-(4-Chlorobenzoyl)-1,4-dimethyl-1H-pyrrol-2-ylmethyl]pyridin-5-yl}amine], the half-maximal inhibitory concentration (IC50) in assay [2] (setting [4]) is 78400 nM.
